From patent US20060193776A1, “Screening methods employing zebrafish and the blood brain barrier” (priority 2004, published 2006)

Columns and labels:
[1] = tested on: blood brain barrier of zebrafish larvae; experiment: Dye exclusion experiments: dye injected into pericardial region, fluorescence intensity in the brain quantified
Description: Evans Blue dye (961 Da) was used to investigate the presence of BBB in zebrafish larvae. […] In rodents, Evans Blue leakage is observed following brain trauma.
1) 2% Evans Blue in 0.9% saline was injected into pericardial sac of larvae from 2 days post-fertilisation (d.p.f.) to 1 month old. 0.9% saline was injected as a control.
2) The larvae were left to develop for 6 hours to allow the dye to penetrate from bloodstream into tissues.
3) The larvae were viewed under fluorescent dissecting scope (TRITC filter) to ensure that dye was present in blood vessels.
5) They were embedded in O.C.T. (Optimal Cutting Temperature compound) and 10 μm frozen sections were taken in parasaggital plane.
6) Midline sections were viewed on fluorescent microscope (TRITC filter) at ×40 magnification. Images were taken of Evans Blue injected and saline injected samples.
7) Fluorescent intensity was measured in 3 regions of control and Evans Blue injected samples using AnalySis software. Mean fluorescent intensity was calculated for each age group.
Injection stocks of 2% evans blue in 0.9% saline and a 10% sodium fluorescein in 0.9% saline were prepared and stored at 4° C. Larvae were anaesthetised by immersion in 0.2 mg/ml 3-amino benzoic acid (MS222) prior to being immobilised and oriented in 3% methyl cellulose in embryo medium in a lateral position such that the heart was accessible. Larvae and juveniles from 2 days post-fertilisation (d.p.f.) to 30 d.p.f. were injected into the pericardial region with 0.5 to 2 nl of dye or saline control, depending on age, using standard zebrafish egg microinjection apparatus (Westerfield, 1995). Fish were transferred to fresh embryo medium to recover from anaesthesia, then viewed using a fluorescence dissecting microscope at 1 hour intervals to determine the time of uptake of the dye into the circulation and the time at which dye had permeated from the circulation into non-vascular body tissue. Dye and saline injected larvae were anaesthetised at 4 hours and 6 hours after injection and fixed in 4% paraformaldehyde in PBS. 10 larvae per age group and injection treatment were embedded in Sakura Tissue-Tek OCT Compound (Bayer, Newbury, UK) and frozen parasagittal sections were cut at 10 μm thickness.
Sections were visualised without mounting medium by fluorescence microscopy on an Olympus BX51 microscope. Three midline sagittal sections from each larva were identified and images were captured using a ColorView camera (Olympus) and AnalySis software (Soft Imaging System). The fluorescence intensity within the brain was quantified for each midline section of each larva in each treatment group using colour threshold and area measurements in AnalySis. Mean values, standard deviations and T-tests were calculated using Excel software (Microsoft Office).

[2] = tested on: zebrafish; experiment: DMSO tolerance of zebrafish; assay type: in vivo; conditions: added to the fish water
Description: Zebrafish are also DMSO (dimethyl sulphoxide) tolerant. This is important as DMSO is used as a solvent to dissolve many drugs. The inventors have established that zebrafish can tolerate 1% DMSO. Thus, a candidate drug or other test substance may be dissolved in DMSO and administered to zebrafish by adding to the fish water to give a final concentration of DMSO of at least up to 1%. This is employed in various preferred aspects and embodiments of the present invention.

[3] = mammals; cited from earlier work
[4] = clinical, humans; cited from earlier work
[5] = rodents; cited from earlier work

**Q.** For `O=C([O-])c1ccccc1-c1c2ccc(=O)cc-2oc2cc([O-])ccc12.[Na+].[Na+]` [sodium fluorescein], which “day from which excluded from the brain” value ([1]; peripheral injection) is on record?
**A.** 10 days

**Q.** And the “day until which it permeates into the brain” value ([1]; peripheral injection)?
**A.** 8 days

**Q.** And the “age at which fluorescent intensity in the brain decreases sharply (exclusion from the brain)” value ([1]; peripheral injection, versus saline controls)?
**A.** 10 d.p.f.

**Q.** With `C[S+](C)[O-]` [DMSO, dimethyl sulphoxide] as the compound, how does the “concentration tolerated by zebrafish” value [2] read?
**A.** 1%

**Q.** For rhodamine 123, which “age at which fluorescent intensity in the brain decreases sharply (exclusion from the brain)” value ([1]; zebrafish, in vivo) is on record?
**A.** 8 d.p.f.

**Q.** Which “crosses the BBB” value [3] does the source give for `Clc1ccc2c(c1)CCc1cccnc1C2=C1CCNCC1` [desloratadine] here?
**A.** does not cross the BBB

**Q.** For `CCOC(=O)N1CCC(=C2c3ccc(Cl)cc3CCc3cccnc32)CC1` [loratadine], which “sedating or non-sedating antihistamine” value [4] is on record?
**A.** non-sedating

**Q.** Which “sedating or non-sedating antihistamine” value [4] does the source give for `Cc1ccc(/C(=C\CN2CCCC2)c2ccccn2)cc1` [triprolidine] here?
**A.** sedating

**Q.** With `OCCOCCN1CCN(C(c2ccccc2)c2ccc(Cl)cc2)CC1` (stereo not drawn) [hydroxyzine] as the compound, how does the “sedating or non-sedating antihistamine” value [4] read?
**A.** sedating

**Q.** What does the source list for `Cc1cc(-c2ccc(/N=N/c3ccc4c(S(=O)(=O)O)cc(S(=O)(=O)O)c(N)c4c3O)c(C)c2)ccc1/N=N/c1ccc2c(S(=O)(=O)O)cc(S(=O)(=O)O)c(N)c2c1O` [Evans Blue]?
**A.** fluorescence in the brain ([1]; 3 d.p.f., dye injected into pericardial sac, 6 hours): High level of fluorescence in the brain; brain fluorescence compared with saline injected samples ([1]; 5 d.p.f., dye injected into pericardial sac, 6 hours): no different from saline injected samples; change of fluorescent intensity in the brain with age ([1]; FIG. 2, days post-fertilisation): age dependent decrease; day from which excluded from the brain ([1]; peripheral injection): 5 days; exclusion from the brain [5]: excluded from the brain if the BBB is intact

**Q.** With `O=C(O)COCCN1CCN(C(c2ccccc2)c2ccc(Cl)cc2)CC1` (stereo not drawn) [cetirizine] as the compound, how does the “sedating or non-sedating antihistamine” value [4] read?
**A.** non-sedating
